The subject of the data set is Calf thymus DNA. In kind it is biochemical. The note with it: 0.2 mM, negative control, under the assay conditions (Fig. S8).

Structures are written as SMILES.

These results are taken from paper PMC3509269 (The Analyst, 2012).

As for `C1CCOC1` [THF], the “SWV peak increases (DNA damage signal)” value is recorded as “did not show SWV peak increases”.
